One block for each compound: values may come before it. Active and inactive are the calls of the source. No cut-off for these calls is given here.
Tests used:
Hepatocyte [1] = assay: Inhibition of gluconeogenesis in Sprague-Dawley rat hepatocytes at 10 uM incubated for 1.5 hrs followed by sodium pyruvate and sodium lactate addition and measured after 4 hrs by colorimetric analysis relative to control; format: functional; settings: time 5.5 hrs
Hepatocyte [2] = assay: Inhibition of gluconeogenesis in Sprague-Dawley rat hepatocytes at 0.3 uM incubated for 1.5 hrs followed by sodium pyruvate and sodium lactate addition and measured after 4 hrs by colorimetric analysis relative to control; format: functional; settings: time 5.5 hrs
Hepatocyte [3] = assay: Inhibition of gluconeogenesis in Sprague-Dawley rat hepatocytes at 1 uM incubated for 1.5 hrs followed by sodium pyruvate and sodium lactate addition and measured after 4 hrs by colorimetric analysis relative to control; format: functional; settings: time 5.5 hrs
Hepatocyte [4] = assay: Inhibition of gluconeogenesis in Sprague-Dawley rat hepatocytes at 3 uM incubated for 1.5 hrs followed by sodium pyruvate and sodium lactate addition and measured after 4 hrs by colorimetric analysis relative to control; format: functional; settings: time 5.5 hrs
Mus musculus [5] = assay: Inhibition of gluconeogenesis in CD-1 mouse assessed as decrease in blood glucose level at 50 mg/kg administered via gavage at 1 hr prior to pyruvate sodium challenge and measured for 2 hrs by pyruvate tolerance test; format: functional, organism-based; settings: time 3.0 hrs
Mus musculus [6] = assay: Inhibition of gluconeogenesis in CD-1 mouse assessed as decrease in blood glucose level at 25 mg/kg administered via gavage at 1 hr prior to pyruvate sodium challenge and measured for 2 hrs by pyruvate tolerance test; format: functional, organism-based; settings: time 3.0 hrs
[7] = Half life in CD-1 mouse at 1 mg/kg, iv by LC-MS/MS analysis; format: ADME, organism-based; settings: in vivo
[8] = AUC(last) in CD-1 mouse at 1 mg/kg, iv by LC-MS/MS analysis; format: ADME, organism-based; design: dose 1 mg/kg, route iv; settings: in vivo
[9] = Observed AUCinfinity in CD-1 mouse at 1 mg/kg, iv by LC-MS/MS analysis; format: ADME, organism-based; design: dose 1 mg/kg, route iv; settings: in vivo
[10] = Observed clearance in CD-1 mouse at 1 mg/kg, iv by LC-MS/MS analysis; format: ADME, organism-based; settings: in vivo
[11] = Observed MRTinfinity in CD-1 mouse at 1 mg/kg, iv by LC-MS/MS analysis; format: ADME, organism-based; settings: in vivo
[12] = Observed volume of distribution at steady state in CD-1 mouse at 1 mg/kg, iv by LC-MS/MS analysis; format: ADME, organism-based; settings: in vivo, read-out: Vdss
[13] = Half life in CD-1 mouse at 1 mg/kg, po by LC-MS/MS analysis; format: ADME, organism-based; settings: in vivo
[14] = Tmax in CD-1 mouse at 1 mg/kg, po by LC-MS/MS analysis; format: ADME, organism-based; settings: in vivo
[15] = Cmax in CD-1 mouse at 1 mg/kg, po by LC-MS/MS analysis; format: ADME, organism-based; design: dose 1 mg/kg, route po; settings: in vivo
[16] = AUC(last) in CD-1 mouse at 1 mg/kg, po by LC-MS/MS analysis; format: ADME, organism-based; design: dose 1 mg/kg, route po; settings: in vivo
[17] = Observed AUCinfinity in CD-1 mouse at 1 mg/kg, po by LC-MS/MS analysis; format: ADME, organism-based; design: dose 1 mg/kg, route po; settings: in vivo
[18] = Observed MRTinfinity in CD-1 mouse at 1 mg/kg, po by LC-MS/MS analysis; format: ADME, organism-based; settings: in vivo
[19] = Oral bioavailability in CD-1 mouse at 1 mg/kg by LC-MS/MS analysis; format: ADME, organism-based; settings: in vivo
[20] = Half life in CD-1 mouse at 3 mg/kg, po by LC-MS/MS analysis; format: ADME, organism-based; settings: in vivo
[21] = Tmax in CD-1 mouse at 3 mg/kg, po by LC-MS/MS analysis; format: ADME, organism-based; settings: in vivo
[22] = Cmax in CD-1 mouse at 3 mg/kg, po by LC-MS/MS analysis; format: ADME, organism-based; design: dose 3 mg/kg, route po; settings: in vivo
[23] = AUC(last) in CD-1 mouse at 3 mg/kg, po by LC-MS/MS analysis; format: ADME, organism-based; design: dose 3 mg/kg, route po; settings: in vivo
[24] = Observed AUCinfinity in CD-1 mouse at 3 mg/kg, po by LC-MS/MS analysis; format: ADME, organism-based; design: dose 3 mg/kg, route po; settings: in vivo
[25] = Observed MRTinfinity in CD-1 mouse at 3 mg/kg, po by LC-MS/MS analysis; format: ADME, organism-based; settings: in vivo
[26] = Oral bioavailability in CD-1 mouse at 3 mg/kg by LC-MS/MS analysis; format: ADME, organism-based; settings: in vivo
[27] = Half life in CD-1 mouse at 10 mg/kg, po by LC-MS/MS analysis; format: ADME, organism-based; settings: in vivo
[28] = Tmax in CD-1 mouse at 10 mg/kg, po by LC-MS/MS analysis; format: ADME, organism-based; settings: in vivo
[29] = Cmax in CD-1 mouse at 10 mg/kg, po by LC-MS/MS analysis; format: ADME, organism-based; design: dose 10 mg/kg, route po; settings: in vivo
[30] = AUC(last) in CD-1 mouse at 10 mg/kg, po by LC-MS/MS analysis; format: ADME, organism-based; design: dose 10 mg/kg, route po; settings: in vivo
[31] = Observed AUCinfinity in CD-1 mouse at 10 mg/kg, po by LC-MS/MS analysis; format: ADME, organism-based; design: dose 10 mg/kg, route po; settings: in vivo
[32] = Observed MRTinfinity in CD-1 mouse at 10 mg/kg, po by LC-MS/MS analysis; format: ADME, organism-based; settings: in vivo
[33] = Oral bioavailability in CD-1 mouse at 10 mg/kg by LC-MS/MS analysis; format: ADME, organism-based; settings: in vivo
[34] = Half life in CD-1 mouse at 30 mg/kg, po by LC-MS/MS analysis; format: ADME, organism-based; settings: in vivo
[35] = Tmax in CD-1 mouse at 30 mg/kg, po by LC-MS/MS analysis; format: ADME, organism-based; settings: in vivo
[36] = Cmax in CD-1 mouse at 30 mg/kg, po by LC-MS/MS analysis; format: ADME, organism-based; design: dose 30 mg/kg, route po; settings: in vivo
[37] = AUC(last) in CD-1 mouse at 30 mg/kg, po by LC-MS/MS analysis; format: ADME, organism-based; design: dose 30 mg/kg, route po; settings: in vivo
[38] = Observed AUCinfinity in CD-1 mouse at 30 mg/kg, po by LC-MS/MS analysis; format: ADME, organism-based; design: dose 30 mg/kg, route po; settings: in vivo
[39] = Observed MRTinfinity in CD-1 mouse at 30 mg/kg, po by LC-MS/MS analysis; format: ADME, organism-based; settings: in vivo
[40] = Oral bioavailability in CD-1 mouse at 30 mg/kg by LC-MS/MS analysis; format: ADME, organism-based; settings: in vivo
Mus musculus [41] = assay: Antihyperglycemic activity in diabetic ob/ob mouse assessed as reduction in non-fasting blood glucose level at 5 mg/kg administered via gavage qd for 24 days and measured on day 24; format: functional; settings: po, 576 h, time 24 day
Mus musculus [42] = assay: Antihyperglycemic activity in diabetic ob/ob mouse assessed as reduction in fasting blood glucose level at 5 mg/kg administered via gavage qd for 24 days and measured on day 24; format: functional; settings: po, 576 h, time 24 day
[43] = Toxicity in diabetic ob/ob mouse assessed as effect on body weight at 5 mg/kg administered via gavage qd for 24 days; format: organism-based; settings: in vivo, po, 576 h, time 24 day
[44] = Toxicity in diabetic ob/ob mouse assessed as effect on daily food intake at 5 mg/kg administered via gavage qd for 24 days; format: organism-based; settings: in vivo, po, 576 h, time 24 day
Mus musculus [45] = assay: Inhibition of gluconeogenesis in CD-1 mouse assessed as decrease in blood glucose level at 50 mg/kg administered via gavage at 2 hrs prior to pyruvate sodium challenge and measured for 2 hrs by pyruvate tolerance test; format: functional, organism-based; settings: time 4.0 hrs
Mus musculus [46] = assay: Antihyperglycemic activity in diabetic ob/ob mouse assessed as reduction in non-fasting blood glucose level at 15 mg/kg administered via gavage qd for 24 days and measured on day 24; format: functional, organism-based; settings: time 24.0 day
Mus musculus [47] = assay: Antihyperglycemic activity in diabetic ob/ob mouse assessed as reduction in fasting blood glucose level at 15 mg/kg administered via gavage qd for 24 days and measured on day 24; format: functional, organism-based; settings: time 24.0 day
[48] = Toxicity in diabetic ob/ob mouse assessed as effect on body weight at 15 mg/kg administered via gavage qd for 24 days; format: organism-based; settings: in vivo, po, 576 h, time 24 day
[49] = Toxicity in diabetic ob/ob mouse assessed as effect on daily food intake at 15 mg/kg administered via gavage qd for 24 days; format: organism-based; settings: in vivo, po, 576 h, time 24 day

SMILES: COc1ccccc1OCc1ccc(C(=O)O)o1
fold change (FC) (Hepatocyte [1]): 0.99

SMILES: CNC(=O)CCc1ccc(OCc2ccc(C(=O)O)o2)c(OC)c1
fold change (FC) (Hepatocyte [1]): 0.98

SMILES: C=CCc1ccc(OCc2ncc(C(=O)O)s2)c(OC)c1
fold change (FC) (Hepatocyte [1]): 1.33

SMILES: C=CCc1ccc(OCc2cccc(C(=O)O)c2)c(OC)c1
fold change (FC) (Hepatocyte [1]): 1.06

SMILES: C=CCc1ccc(OCc2ccc(C(=O)N3CCN(C)CC3)o2)c(OC)c1
fold change (FC) (Hepatocyte [1]): 0.98

SMILES: C=CCc1ccc(OCc2ccc(C(=O)N(C)C)o2)c(OC)c1
fold change (FC) (Hepatocyte [1]): 0.87

SMILES: CCCc1ccc(OCc2ccc(C(=O)O)o2)c(OC(C)C)c1
fold change (FC) (Hepatocyte [1]): 1.25

SMILES: CCCc1ccc(OCc2ccc(C(=O)O)o2)c(OCC2CC2)c1
fold change (FC) (Hepatocyte [1]): 1.16

SMILES: CNC(=O)Cc1ccc(OCc2ccc(C(=O)O)o2)c(OC)c1
fold change (FC) (Hepatocyte [1]): 1.08

SMILES: C=CCc1ccc(OCc2ccc(C(=O)NCc3ccccc3)o2)c(OC)c1
fold change (FC) (Hepatocyte [1]): 0.97

SMILES: COc1cc(CC(=O)N(C)C)ccc1OCc1ccc(C(=O)O)o1
fold change (FC) (Hepatocyte [1]): 1.15

half-life [7]: 0.828 h
AUC(0-t) [8]: 1220 ng·h/mL
AUC(0-inf) [9]: 1250 ng·h/mL
clearance [10]: 13.5 mL/min/kg
MRT inf [11]: 0.798 h
Vd [12]: 0.65 L/kg
half-life [13]: 1.8 h
Tmax [14]: 0.25 h
Cmax [15]: 547 ng/mL
AUC(0-t) [16]: 678 ng·h/mL
AUC(0-inf) [17]: 709 ng·h/mL
MRT inf [18]: 2.07 h
bioavailability [19]: 55.7%
half-life [20]: 2.26 h
Tmax [21]: 0.25 h
Cmax [22]: 1460 ng/mL
AUC(0-t) [23]: 2430 ng·h/mL
AUC(0-inf) [24]: 2480 ng·h/mL
MRT inf [25]: 2.74 h
bioavailability [26]: 66.7%
half-life [27]: 3.12 h
Tmax [28]: 0.25 h
Cmax [29]: 7580 ng/mL
AUC(0-t) [30]: 9590 ng·h/mL
AUC(0-inf) [31]: 9620 ng·h/mL
MRT inf [32]: 2.31 h
bioavailability [33]: 78.9%
half-life [34]: 3.15 h
Tmax [35]: 0.25 h
Cmax [36]: 41000 ng/mL
AUC(0-t) [37]: 52700 ng·h/mL
AUC(0-inf) [38]: 52800 ng·h/mL
MRT inf [39]: 1.7 h
bioavailability [40]: 144%
SMILES: CCCc1ccc(OCc2ccc(C(=O)O)o2)cc1OC
fold change (FC) (Hepatocyte [1]): 0.03
fold change (FC) (Hepatocyte [2]): 0.75
fold change (FC) (Hepatocyte [3]): 0.64
fold change (FC) (Hepatocyte [4]): 0.16
inhibition (Mus musculus [5]): Active
inhibition (Mus musculus [6]): Active
inhibition in vivo at 5 mg/kg (Mus musculus [41]): 34.9%
inhibition in vivo at 5 mg/kg (Mus musculus [42]): 40.5%
Activity [43]: Non-Toxic
Activity [44]: Non-Toxic

SMILES: C=CCc1ccc(OCc2ccc(C(=O)O)o2)c(OC)c1
fold change (FC) (Hepatocyte [1]): 0.57
fold change (FC) (Hepatocyte [2]): 0.96
fold change (FC) (Hepatocyte [3]): 0.92
fold change (FC) (Hepatocyte [4]): 0.73
inhibition (Mus musculus [45]): Active
inhibition (Mus musculus [5]): Active
Activity (Mus musculus [46]): Active
Activity (Mus musculus [47]): Active
Activity [48]: Non-Toxic
Activity [49]: Non-Toxic

SMILES: COc1cc(/C=C/C(=O)N(C)C)ccc1OCc1ccc(C(=O)O)o1
fold change (FC) (Hepatocyte [1]): 0.77

SMILES: CCC(=O)c1ccc(OCc2ccc(C(=O)O)o2)c(OC)c1
fold change (FC) (Hepatocyte [1]): 0.79

SMILES: C/C=C/c1ccc(OCc2ccc(C(=O)O)o2)c(OC)c1
fold change (FC) (Hepatocyte [1]): 0.93

SMILES: CCCc1ccc(OCc2ccc(C(=O)O)o2)c(NC(C)=O)c1
fold change (FC) (Hepatocyte [1]): 0.95

SMILES: CCCc1ccc(OCc2ccc(C(=O)O)o2)c(OC)c1
fold change (FC) (Hepatocyte [1]): 0.65
fold change (FC) (Hepatocyte [2]): 1.19
fold change (FC) (Hepatocyte [3]): 1.05
fold change (FC) (Hepatocyte [4]): 0.75
inhibition (Mus musculus [45]): Active

SMILES: C=CCc1ccc(OCc2ccc(C(=O)Nc3cccc(C)c3)o2)c(OC)c1
fold change (FC) (Hepatocyte [1]): 0.83
